Values quoted from earlier work as cited in PMC4210863 (Bioorganic & medicinal chemistry, 2010).

Molecular target: T1, O-GlcNAcase (OGA) (Homo sapiens, UniProt O60502)
T1 sequence (O60502 1-916): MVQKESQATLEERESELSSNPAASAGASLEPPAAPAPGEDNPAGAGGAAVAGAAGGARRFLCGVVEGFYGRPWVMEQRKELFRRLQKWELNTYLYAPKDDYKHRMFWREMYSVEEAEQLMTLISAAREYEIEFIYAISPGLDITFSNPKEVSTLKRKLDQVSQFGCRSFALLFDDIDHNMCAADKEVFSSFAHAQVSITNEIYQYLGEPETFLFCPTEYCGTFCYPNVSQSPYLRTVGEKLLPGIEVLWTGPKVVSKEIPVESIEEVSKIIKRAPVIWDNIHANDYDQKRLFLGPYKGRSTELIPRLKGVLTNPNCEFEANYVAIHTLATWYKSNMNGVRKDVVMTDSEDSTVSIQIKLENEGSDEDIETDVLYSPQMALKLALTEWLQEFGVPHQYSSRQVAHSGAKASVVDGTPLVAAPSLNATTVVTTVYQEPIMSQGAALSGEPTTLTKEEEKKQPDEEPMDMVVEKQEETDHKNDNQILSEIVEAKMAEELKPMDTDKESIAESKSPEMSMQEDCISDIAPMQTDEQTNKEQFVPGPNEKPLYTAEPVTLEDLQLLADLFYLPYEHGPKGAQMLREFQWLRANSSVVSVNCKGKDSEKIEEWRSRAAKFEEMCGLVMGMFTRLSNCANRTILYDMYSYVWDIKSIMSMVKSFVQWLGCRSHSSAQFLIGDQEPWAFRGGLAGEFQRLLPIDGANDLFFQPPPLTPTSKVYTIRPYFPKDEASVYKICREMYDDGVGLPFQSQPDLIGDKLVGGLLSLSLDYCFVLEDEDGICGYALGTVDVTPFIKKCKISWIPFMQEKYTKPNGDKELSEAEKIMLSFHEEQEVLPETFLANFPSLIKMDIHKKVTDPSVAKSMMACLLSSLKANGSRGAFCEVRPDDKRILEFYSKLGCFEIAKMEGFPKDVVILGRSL
Assay: fluorogenic substrate hydrolysis by OGA
Assay type: biochemical

- Km: 85 µM
SMILES: CC(=O)N[C@H]1[C@H](Oc2ccc3c(c2)Oc2cc(O[C@@H]4O[C@H](CO)[C@@H](O)[C@H](O)[C@H]4NC(C)=O)ccc2C32OC(=O)c3ccccc32)O[C@H](CO)[C@@H](O)[C@@H]1O [compound 3, FDGlcNAc]
